Results published in PubChem BioAssay AID330 (DTP/NCI, 2004).
Values joined by “and” are separate entries in the source; they are usually repeats but may differ in a detail not shown here. Identical values can stand only once. Inconclusive results and toxic doses are left out. The calls were made as follows: active = survival T/C of 150% or more; inactive = T/C below 125% in these data.

Tested on: P388 leukemia ip, CD2F1 mice, survival T/C
Test: NCI In Vivo Anticancer Drug Screen. Data for tumor model P388 Leukemia (intraperitoneal) in CD2F1 (CDF1) mice
Conditions: endpoint: median survival time, higher = longer survival
Summary of the method: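 Mice carrying the transplanted tumor received test compound or vehicle. Survival was recorded in each group, and the value is the treated-group measurement divided by that of the vehicle-treated control group.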

[1] = dose: 100.0 mg/kg/injection, schedule: Q04DX003 (ip), vehicle: Klucel (hydroxypropylcellulose) (HPC)
[2] = dose: 200.0 mg/kg/injection, schedule: Q04DX003 (ip), vehicle: Klucel (hydroxypropylcellulose) (HPC)
[3] = dose: 100.0 mg/kg/injection, schedule: Q04DX002 (ip), vehicle: saline with Tween-80
[4] = dose: 200.0 mg/kg/injection, schedule: Q04DX002 (ip), vehicle: saline with Tween-80
[5] = dose: 100.0 mg/kg/injection, schedule: Q01DX009 (ip), vehicle: saline
[6] = dose: 200.0 mg/kg/injection, schedule: Q01DX009 (ip), vehicle: saline
[7] = dose: 50.0 mg/kg/injection, schedule: Q01DX009 (ip), vehicle: saline with Tween-80
[8] = dose: 100.0 mg/kg/injection, schedule: Q01DX009 (ip), vehicle: saline with Tween-80
[9] = dose: 200.0 mg/kg/injection, schedule: Q01DX009 (ip), vehicle: saline with Tween-80
[10] = dose: 50.0 mg/kg/injection, schedule: Q01DX005 (ip), vehicle: Klucel (hydroxypropylcellulose) (HPC)
[11] = dose: 100.0 mg/kg/injection, schedule: Q01DX005 (ip), vehicle: Klucel (hydroxypropylcellulose) (HPC)
[12] = dose: 200.0 mg/kg/injection, schedule: Q01DX005 (ip), vehicle: Klucel (hydroxypropylcellulose) (HPC)
[13] = dose: 50.0 mg/kg/injection, schedule: Q01DX005 (ip), vehicle: saline with Tween-80
[14] = dose: 100.0 mg/kg/injection, schedule: Q01DX005 (ip), vehicle: saline with Tween-80
[15] = dose: 200.0 mg/kg/injection, schedule: Q01DX005 (ip), vehicle: saline with Tween-80

Measured: T/C

CC1(C)C(C)(C)C1(Cl)S(C)(=O)=O
inactive: dose: 100.0 mg/kg/injection, schedule: Q04DX003 (ip), vehicle: saline with Tween-80 101 % of control | dose: 200.0 mg/kg/injection, schedule: Q04DX003 (ip), vehicle: saline with Tween-80 106 % of control | dose: 400.0 mg/kg/injection, schedule: Q04DX003 (ip), vehicle: saline with Tween-80 106 % of control

S=C1SCCCN1c1ccccc1
inactive: [1] 100 % of control | [2] 110 % of control

c1ccc2nc(-c3cnc4ccccc4n3)cnc2c1
inactive: [3] 95 % of control | [4] 90 % of control

O=c1[nH]cc(B(O)O)c(=O)[nH]1
inactive: [5] 106 % of control | [6] 113 % of control | dose: 400.0 mg/kg/injection, schedule: Q01DX009 (ip), vehicle: saline 113 % of control

O=C1NN2CCCN=C2c2ccncc21
inactive: dose: 60.0 mg/kg/injection, schedule: Q01DX005 (ip), vehicle: saline 98 % of control | dose: 120.0 mg/kg/injection, schedule: Q01DX005 (ip), vehicle: saline 97 % of control | dose: 240.0 mg/kg/injection, schedule: Q01DX005 (ip), vehicle: saline 93 % of control

CCc1cccc(NC(=O)NNC(=O)c2ccncc2)c1
inactive: dose: 50.0 mg/kg/injection, schedule: Q01DX009 (ip), vehicle: Klucel (hydroxypropylcellulose) (HPC) 96 % of control | dose: 100.0 mg/kg/injection, schedule: Q01DX009 (ip), vehicle: Klucel (hydroxypropylcellulose) (HPC) 100 % of control

Nc1c(Br)cc2c(c1Br)Cc1cc([N+](=O)[O-])ccc1-2
inactive: dose: 31.3 mg/kg/injection, schedule: Q01DX010 (ip), vehicle: saline 90 % of control | dose: 62.5 mg/kg/injection, schedule: Q01DX010 (ip), vehicle: saline 100 % of control | dose: 125.0 mg/kg/injection, schedule: Q01DX010 (ip), vehicle: saline 105 % of control | dose: 250.0 mg/kg/injection, schedule: Q01DX010 (ip), vehicle: saline 110 % of control

O=C1CCN(Cc2ccccc2)C(=O)N1
inactive: [7] 100 % of control | [8] 105 % of control | [9] 100 % of control

CCC(C)NS(=O)(=O)c1ccccc1C(=O)OC (configuration not stated)
inactive: [10] 99 % of control | [11] 99 % of control | [12] 97 % of control

O=Nc1ccc(NO)cc1
inactive: dose: 25.0 mg/kg/injection, schedule: Q04DX003 (ip), vehicle: Klucel (hydroxypropylcellulose) (HPC) 110 % of control | dose: 50.0 mg/kg/injection, schedule: Q04DX003 (ip), vehicle: Klucel (hydroxypropylcellulose) (HPC) 108 % of control | [1] 103 % of control | [2] 110 % of control | dose: 400.0 mg/kg/injection, schedule: Q04DX003 (ip), vehicle: Klucel (hydroxypropylcellulose) (HPC) 88 % of control

Cn1nnn(C)c1=NC#N
inactive: dose: 100.0 mg/kg/injection, schedule: Q01DX001 (ip), vehicle: saline 100 % of control | dose: 200.0 mg/kg/injection, schedule: Q01DX001 (ip), vehicle: saline 107 % of control | dose: 400.0 mg/kg/injection, schedule: Q01DX001 (ip), vehicle: saline 100 % of control

O=c1ccs[nH]1
inactive: dose: 3.12 mg/kg/injection, schedule: Q01DX009 (ip), vehicle: Klucel (hydroxypropylcellulose) (HPC) 100 % of control | dose: 6.25 mg/kg/injection, schedule: Q01DX009 (ip), vehicle: Klucel (hydroxypropylcellulose) (HPC) 102 % of control and 104 % of control and 117 % of control | dose: 12.5 mg/kg/injection, schedule: Q01DX009 (ip), vehicle: Klucel (hydroxypropylcellulose) (HPC) 102 % of control and 114 % of control and 124 % of control | dose: 25.0 mg/kg/injection, schedule: Q01DX009 (ip), vehicle: Klucel (hydroxypropylcellulose) (HPC) 100 % of control and 90 % of control

CCN(CC)c1ccc2cc(S(=O)(=O)c3ccc(Cl)cc3)c(=O)oc2c1
inactive: [13] 86 % of control | [14] 92 % of control

O=C(O)CC(NC(=O)CCl)c1cccs1 (configuration not stated)
inactive: dose: 50.0 mg/kg/injection, schedule: Q01DX009 (ip), vehicle: saline 97 % of control | [5] 94 % of control | [6] 98 % of control

CCOc1c(N=Nc2ccc(C)cc2)c(C)nn1C(N)=S
inactive: dose: 15.0 mg/kg/injection, schedule: Q01DX005 (ip), vehicle: Klucel + Tween-80 103 % of control | dose: 30.0 mg/kg/injection, schedule: Q01DX005 (ip), vehicle: Klucel + Tween-80 105 % of control

O=C(Oc1ccccc1)c1cc(O)c(O)c(O)c1
inactive: dose: 25.0 mg/kg/injection, schedule: Q01DX005 (ip), vehicle: saline with Tween-80 100 % of control and 95 % of control | [13] 100 % of control and 101 % of control | [14] 99 % of control and 100 % of control | [15] 101 % of control and 116 % of control | dose: 400.0 mg/kg/injection, schedule: Q01DX005 (ip), vehicle: saline with Tween-80 109 % of control

CCOP(=S)(N/N=C(/c1ccc(C)s1)C(F)(F)F)OCC
inactive: [10] 104 % of control | [11] 110 % of control | [12] 114 % of control

O=c1c2[nH]c3ccccc3sc=2c(=O)n1-c1ccc(Cl)cc1
inactive: dose: 60.0 mg/kg/injection, schedule: Q01DX005 (ip), vehicle: saline with Tween-80 103 % of control | dose: 120.0 mg/kg/injection, schedule: Q01DX005 (ip), vehicle: saline with Tween-80 98 % of control | dose: 240.0 mg/kg/injection, schedule: Q01DX005 (ip), vehicle: saline with Tween-80 94 % of control

CCCCCCCSc1ncnc2c1ncn2C(=O)Sc1ccccc1
inactive: [13] 104 % of control | [14] 99 % of control | [15] 107 % of control

CCCCN1CCC2(C)c3cc(O)ccc3CC1C2CC (configuration not stated)
inactive: dose: 7.5 mg/kg/injection, schedule: Q01DX005 (ip), vehicle: Klucel (hydroxypropylcellulose) (HPC) 101 % of control | dose: 15.0 mg/kg/injection, schedule: Q01DX005 (ip), vehicle: Klucel (hydroxypropylcellulose) (HPC) 100 % of control | dose: 30.0 mg/kg/injection, schedule: Q01DX005 (ip), vehicle: Klucel (hydroxypropylcellulose) (HPC) 97 % of control

C=C1C2CCC3(C)C(c4ccoc4)OC(=O)CC13OC1CC(=O)C(C)(C)C(CC(=O)OC)C12C (configuration not stated)
inactive: dose: 25.0 mg/kg/injection, schedule: Q01DX009 (ip), vehicle: saline with Tween-80 99 % of control | [7] 99 % of control | [8] 99 % of control | [9] 98 % of control

COc1ccc(C2CC(=O)N(CC(=O)O)C(=O)C2)cc1
inactive: dose: 100.0 mg/kg/injection, schedule: Q04DX003 (ip), vehicle: suspension in saline 103 % of control | dose: 200.0 mg/kg/injection, schedule: Q04DX003 (ip), vehicle: suspension in saline 100 % of control | dose: 400.0 mg/kg/injection, schedule: Q04DX003 (ip), vehicle: suspension in saline 99 % of control

CC(C)C1CCC(C)C1C(N)=O (configuration not stated)
inactive: [3] 103 % of control | [4] 99 % of control | dose: 400.0 mg/kg/injection, schedule: Q04DX002 (ip), vehicle: saline with Tween-80 99 % of control

NCC(=O)NCC(=O)NC(CCCN=C(N)N)C(=O)O (configuration not stated)
inactive: dose: 50.0 mg/kg/injection, schedule: Q01DX005 (ip), vehicle: saline 100 % of control | dose: 100.0 mg/kg/injection, schedule: Q01DX005 (ip), vehicle: saline 103 % of control | dose: 200.0 mg/kg/injection, schedule: Q01DX005 (ip), vehicle: saline 99 % of control

CC1(C(Cl)(Cl)Cl)C=CC(=O)C=C1
inactive: [7] 99 % of control | [8] 107 % of control | [9] 99 % of control

Cc1ccc(SCC(=O)O)c(C)c1
inactive: [7] 88 % of control | [8] 88 % of control | [9] 94 % of control | dose: 400.0 mg/kg/injection, schedule: Q01DX009 (ip), vehicle: saline with Tween-80 103 % of control

CCOC(=O)c1c(-c2ccccc2)nn(CC(N)=O)c1CO
inactive: [13] 100 % of control | [14] 105 % of control | [15] 103 % of control

CCOC(=O)C1=C(N)CCC2(C1)c1ccccc1-c1ccccc12
inactive: dose: 100.0 mg/kg/injection, schedule: Q01DX001 (ip), vehicle: saline with Tween-80 97 % of control | dose: 200.0 mg/kg/injection, schedule: Q01DX001 (ip), vehicle: saline with Tween-80 103 % of control | dose: 400.0 mg/kg/injection, schedule: Q01DX001 (ip), vehicle: saline with Tween-80 93 % of control
